In ChEMBL document CHEMBL5653631, “A Potent and Selective ULK1 Inhibitor Suppresses Autophagy and Sensitizes Cancer Cells to Nutrient Stress” (iScience, 2018) one finds inhibition and fold change (FC) data, which are given here for 3 compounds.

In experiment [1] the target is Receptor tyrosine-protein kinase erbB-2 (Homo sapiens) (UniProt P04626). The experiment is described as follows: Inhibition of human recombinant ErbB2 at 40 nM in presence of ATP by radiometric assay relative to control.
In experiment [2] the target is Serine/threonine-protein kinase PLK1 (Homo sapiens) (UniProt P53350). Put plainly: Inhibition of human recombinant PLK1 at 40 nM in presence of ATP by radiometric assay relative to control.
Sequence of Serine/threonine-protein kinase PLK1 (Homo sapiens) (P53350 whole entry): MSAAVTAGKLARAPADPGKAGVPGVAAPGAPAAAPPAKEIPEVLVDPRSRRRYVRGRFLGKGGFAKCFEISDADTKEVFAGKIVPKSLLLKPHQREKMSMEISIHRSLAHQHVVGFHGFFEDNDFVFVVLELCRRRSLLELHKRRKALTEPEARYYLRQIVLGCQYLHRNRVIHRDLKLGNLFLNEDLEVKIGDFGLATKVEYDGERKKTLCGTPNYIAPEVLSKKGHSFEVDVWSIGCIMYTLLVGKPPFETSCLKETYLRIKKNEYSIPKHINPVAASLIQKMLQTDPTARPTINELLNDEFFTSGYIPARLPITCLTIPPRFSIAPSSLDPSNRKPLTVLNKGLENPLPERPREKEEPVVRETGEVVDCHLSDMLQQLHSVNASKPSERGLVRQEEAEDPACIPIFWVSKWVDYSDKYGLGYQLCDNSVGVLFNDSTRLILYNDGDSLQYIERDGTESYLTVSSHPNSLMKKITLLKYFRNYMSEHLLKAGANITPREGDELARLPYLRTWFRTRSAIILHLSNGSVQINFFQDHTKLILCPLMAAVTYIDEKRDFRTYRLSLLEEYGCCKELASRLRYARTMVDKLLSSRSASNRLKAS
Experiment [3] concerns the target SRSF protein kinase 2 (Homo sapiens) (UniProt P78362). The experiment is described as follows: Inhibition of human recombinant SRPK2 at 40 nM related to control ULK1.
Experiment [4] deals with Tyrosine-protein kinase Tec (Homo sapiens) (UniProt P42680). The experiment is described as follows: Inhibition of human recombinant TEC at 40 nM related to control ULK1.
Sequence of Tyrosine-protein kinase Tec (Homo sapiens) (P42680 whole entry, looked up): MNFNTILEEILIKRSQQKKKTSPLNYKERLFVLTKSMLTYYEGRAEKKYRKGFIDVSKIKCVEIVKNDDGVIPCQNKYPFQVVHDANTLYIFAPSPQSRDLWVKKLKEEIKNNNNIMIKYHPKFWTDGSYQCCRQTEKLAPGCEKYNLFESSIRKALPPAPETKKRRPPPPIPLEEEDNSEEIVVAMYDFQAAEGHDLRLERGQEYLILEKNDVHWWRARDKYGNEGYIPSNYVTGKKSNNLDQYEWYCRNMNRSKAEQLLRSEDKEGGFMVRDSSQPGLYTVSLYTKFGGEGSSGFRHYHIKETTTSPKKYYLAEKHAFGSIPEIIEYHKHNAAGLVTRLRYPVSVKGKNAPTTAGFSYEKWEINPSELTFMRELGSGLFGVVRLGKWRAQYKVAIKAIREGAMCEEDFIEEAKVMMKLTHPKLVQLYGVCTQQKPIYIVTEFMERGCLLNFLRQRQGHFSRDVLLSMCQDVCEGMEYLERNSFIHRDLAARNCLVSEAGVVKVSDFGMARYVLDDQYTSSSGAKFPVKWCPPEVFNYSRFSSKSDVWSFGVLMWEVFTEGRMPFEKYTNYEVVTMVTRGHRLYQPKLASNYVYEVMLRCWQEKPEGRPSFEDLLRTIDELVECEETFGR
Experiment [5] addresses T1, Tyrosine-protein kinase TXK (Homo sapiens) (UniProt P42681).
T1 sequence (whole entry): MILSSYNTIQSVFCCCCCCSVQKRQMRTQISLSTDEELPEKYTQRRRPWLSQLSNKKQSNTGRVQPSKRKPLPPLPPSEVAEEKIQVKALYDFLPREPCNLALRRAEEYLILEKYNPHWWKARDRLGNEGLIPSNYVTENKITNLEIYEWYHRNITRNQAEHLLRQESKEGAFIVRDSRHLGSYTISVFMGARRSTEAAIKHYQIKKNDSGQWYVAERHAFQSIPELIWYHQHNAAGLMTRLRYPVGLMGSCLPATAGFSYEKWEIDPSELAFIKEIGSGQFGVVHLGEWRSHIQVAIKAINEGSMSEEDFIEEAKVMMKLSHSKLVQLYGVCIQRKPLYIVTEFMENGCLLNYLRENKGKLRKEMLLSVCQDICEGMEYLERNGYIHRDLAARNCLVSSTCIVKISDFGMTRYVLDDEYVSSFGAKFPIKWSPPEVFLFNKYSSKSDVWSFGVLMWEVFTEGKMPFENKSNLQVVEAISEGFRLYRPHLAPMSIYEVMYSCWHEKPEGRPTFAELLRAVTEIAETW
Put plainly: Inhibition of human recombinant TXK at 500 nM in presence of ATP by radiometric assay relative to control.

For experiment [6], the target named is Death-associated protein kinase 1 (Homo sapiens) (UniProt P53355). Put plainly: Inhibition of human recombinant DAPK1 at 500 nM related to control ULK1.
Sequence of Death-associated protein kinase 1 (Homo sapiens) (P53355 whole entry, looked up): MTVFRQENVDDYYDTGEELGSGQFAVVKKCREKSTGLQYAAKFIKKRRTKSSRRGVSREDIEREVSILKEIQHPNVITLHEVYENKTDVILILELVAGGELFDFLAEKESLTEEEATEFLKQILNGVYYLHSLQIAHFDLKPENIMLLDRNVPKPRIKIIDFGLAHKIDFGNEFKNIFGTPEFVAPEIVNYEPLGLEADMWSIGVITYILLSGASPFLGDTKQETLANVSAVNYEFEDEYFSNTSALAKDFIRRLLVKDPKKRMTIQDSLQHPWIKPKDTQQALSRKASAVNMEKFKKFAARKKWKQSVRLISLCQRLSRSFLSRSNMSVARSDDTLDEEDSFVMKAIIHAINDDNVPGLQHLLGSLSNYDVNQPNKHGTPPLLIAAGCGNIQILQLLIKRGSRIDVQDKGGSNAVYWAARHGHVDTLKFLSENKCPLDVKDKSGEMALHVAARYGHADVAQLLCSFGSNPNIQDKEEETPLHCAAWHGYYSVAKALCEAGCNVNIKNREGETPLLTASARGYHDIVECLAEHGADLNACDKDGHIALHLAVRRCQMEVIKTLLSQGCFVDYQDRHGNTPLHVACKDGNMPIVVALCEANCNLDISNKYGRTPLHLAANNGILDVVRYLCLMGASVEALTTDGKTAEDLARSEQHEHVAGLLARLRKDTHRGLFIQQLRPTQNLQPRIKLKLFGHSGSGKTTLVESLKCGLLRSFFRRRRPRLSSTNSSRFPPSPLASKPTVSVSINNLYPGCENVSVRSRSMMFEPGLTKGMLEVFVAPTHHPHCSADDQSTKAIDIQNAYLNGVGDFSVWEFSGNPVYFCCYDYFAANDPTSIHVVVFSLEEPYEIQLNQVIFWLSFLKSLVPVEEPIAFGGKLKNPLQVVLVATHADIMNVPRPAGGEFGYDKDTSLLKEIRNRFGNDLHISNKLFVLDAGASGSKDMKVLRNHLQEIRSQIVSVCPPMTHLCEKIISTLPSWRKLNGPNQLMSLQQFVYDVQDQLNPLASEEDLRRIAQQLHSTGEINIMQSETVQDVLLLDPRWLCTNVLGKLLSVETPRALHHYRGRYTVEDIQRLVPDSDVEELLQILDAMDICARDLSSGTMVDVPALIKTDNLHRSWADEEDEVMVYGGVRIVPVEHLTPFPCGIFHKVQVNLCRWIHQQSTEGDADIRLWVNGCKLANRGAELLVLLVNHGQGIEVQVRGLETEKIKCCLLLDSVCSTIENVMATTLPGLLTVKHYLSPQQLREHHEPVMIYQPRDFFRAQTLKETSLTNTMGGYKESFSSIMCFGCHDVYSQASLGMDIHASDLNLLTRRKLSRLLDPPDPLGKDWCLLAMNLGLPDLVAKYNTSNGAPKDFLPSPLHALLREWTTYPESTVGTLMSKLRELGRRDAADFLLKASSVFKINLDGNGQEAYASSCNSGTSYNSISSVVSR
The target of experiment [7] is T2, Protein kinase C epsilon type (Homo sapiens) (UniProt Q02156).
T2 sequence (whole entry): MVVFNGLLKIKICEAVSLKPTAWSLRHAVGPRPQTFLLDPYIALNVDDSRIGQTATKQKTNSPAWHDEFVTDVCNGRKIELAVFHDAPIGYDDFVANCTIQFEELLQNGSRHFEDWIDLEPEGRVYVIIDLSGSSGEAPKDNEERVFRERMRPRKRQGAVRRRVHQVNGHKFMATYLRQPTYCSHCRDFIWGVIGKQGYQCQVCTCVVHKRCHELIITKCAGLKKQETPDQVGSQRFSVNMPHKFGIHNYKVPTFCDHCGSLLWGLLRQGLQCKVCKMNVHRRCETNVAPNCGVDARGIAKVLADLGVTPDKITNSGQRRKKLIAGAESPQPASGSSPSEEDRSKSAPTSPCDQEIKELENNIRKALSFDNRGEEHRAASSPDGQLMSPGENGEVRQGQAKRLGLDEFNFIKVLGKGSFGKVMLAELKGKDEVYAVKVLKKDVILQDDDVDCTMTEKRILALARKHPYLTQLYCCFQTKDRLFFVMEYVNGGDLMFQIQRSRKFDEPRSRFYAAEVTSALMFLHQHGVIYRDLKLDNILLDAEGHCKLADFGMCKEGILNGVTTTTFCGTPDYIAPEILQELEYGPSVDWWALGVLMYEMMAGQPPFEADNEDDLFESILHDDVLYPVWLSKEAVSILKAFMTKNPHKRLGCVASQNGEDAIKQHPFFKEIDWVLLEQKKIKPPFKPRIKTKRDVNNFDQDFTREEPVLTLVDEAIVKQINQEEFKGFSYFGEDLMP
Put plainly: Inhibition of human recombinant PKCe at 15 nM in presence of ATP by radiometric assay relative to control.

Experiment [8] concerns the target T3, Serine/threonine-protein kinase TAO2 (Homo sapiens) (UniProt Q9UL54).
T3 sequence (whole entry): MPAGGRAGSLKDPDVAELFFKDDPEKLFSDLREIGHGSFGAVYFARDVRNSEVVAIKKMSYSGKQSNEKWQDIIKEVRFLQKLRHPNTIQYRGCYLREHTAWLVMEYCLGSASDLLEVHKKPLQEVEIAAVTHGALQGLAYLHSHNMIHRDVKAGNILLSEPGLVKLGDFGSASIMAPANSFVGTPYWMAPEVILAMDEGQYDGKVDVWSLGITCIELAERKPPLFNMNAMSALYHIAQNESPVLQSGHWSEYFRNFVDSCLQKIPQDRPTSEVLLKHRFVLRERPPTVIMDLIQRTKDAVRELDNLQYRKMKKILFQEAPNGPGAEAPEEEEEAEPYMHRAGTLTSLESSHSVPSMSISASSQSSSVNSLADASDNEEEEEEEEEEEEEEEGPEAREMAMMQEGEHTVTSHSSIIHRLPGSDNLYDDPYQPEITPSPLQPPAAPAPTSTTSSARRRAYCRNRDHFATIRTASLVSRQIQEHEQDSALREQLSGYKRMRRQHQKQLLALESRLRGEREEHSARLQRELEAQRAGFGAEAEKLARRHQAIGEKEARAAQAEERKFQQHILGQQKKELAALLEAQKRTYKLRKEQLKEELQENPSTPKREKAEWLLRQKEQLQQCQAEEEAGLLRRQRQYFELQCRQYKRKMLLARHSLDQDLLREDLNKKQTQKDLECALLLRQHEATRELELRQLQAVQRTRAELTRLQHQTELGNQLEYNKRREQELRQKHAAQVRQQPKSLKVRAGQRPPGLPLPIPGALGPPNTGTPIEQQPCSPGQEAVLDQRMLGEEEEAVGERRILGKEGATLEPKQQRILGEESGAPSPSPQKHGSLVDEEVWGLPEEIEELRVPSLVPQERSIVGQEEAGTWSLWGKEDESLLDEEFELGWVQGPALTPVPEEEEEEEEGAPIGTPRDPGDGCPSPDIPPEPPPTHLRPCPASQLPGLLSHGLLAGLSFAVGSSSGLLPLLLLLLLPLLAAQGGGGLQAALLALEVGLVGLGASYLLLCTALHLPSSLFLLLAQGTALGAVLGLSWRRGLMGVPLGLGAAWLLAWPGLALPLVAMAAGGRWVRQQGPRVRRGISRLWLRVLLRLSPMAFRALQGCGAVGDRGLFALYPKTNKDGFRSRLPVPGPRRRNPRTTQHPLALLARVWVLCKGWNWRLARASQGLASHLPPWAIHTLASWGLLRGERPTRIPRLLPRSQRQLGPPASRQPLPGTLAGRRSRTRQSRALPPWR
Put plainly: Inhibition of human recombinant TAO2 at 15 nM in presence of ATP by radiometric assay relative to control.

The target of experiment [9] is Ribosomal protein S6 kinase alpha-4 (Homo sapiens) (UniProt O75676). Put plainly: Inhibition of human recombinant MSK2 at 15 nM related to control ULK1.
Sequence of Ribosomal protein S6 kinase alpha-4 (Homo sapiens) (O75676 whole entry, looked up): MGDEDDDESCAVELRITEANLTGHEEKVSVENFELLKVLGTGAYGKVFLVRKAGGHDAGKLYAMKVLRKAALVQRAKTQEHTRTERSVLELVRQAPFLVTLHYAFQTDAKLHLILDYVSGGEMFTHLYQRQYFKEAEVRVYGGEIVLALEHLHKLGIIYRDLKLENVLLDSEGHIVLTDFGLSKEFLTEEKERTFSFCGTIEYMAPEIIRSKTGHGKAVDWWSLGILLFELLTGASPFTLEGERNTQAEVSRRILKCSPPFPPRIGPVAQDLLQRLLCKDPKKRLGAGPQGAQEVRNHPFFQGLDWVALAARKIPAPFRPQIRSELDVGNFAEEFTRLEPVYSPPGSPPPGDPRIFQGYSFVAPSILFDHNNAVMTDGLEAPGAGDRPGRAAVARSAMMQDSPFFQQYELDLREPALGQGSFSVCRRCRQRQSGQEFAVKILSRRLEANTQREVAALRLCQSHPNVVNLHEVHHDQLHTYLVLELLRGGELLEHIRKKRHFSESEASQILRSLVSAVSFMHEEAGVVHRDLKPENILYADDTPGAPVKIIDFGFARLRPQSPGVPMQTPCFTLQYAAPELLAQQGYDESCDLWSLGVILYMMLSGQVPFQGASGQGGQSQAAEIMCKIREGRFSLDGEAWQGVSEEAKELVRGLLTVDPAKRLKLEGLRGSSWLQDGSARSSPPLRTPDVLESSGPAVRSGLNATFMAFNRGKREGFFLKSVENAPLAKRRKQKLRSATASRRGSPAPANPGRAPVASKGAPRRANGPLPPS

Sequence of Receptor tyrosine-protein kinase erbB-2 (Homo sapiens) (P04626 whole entry): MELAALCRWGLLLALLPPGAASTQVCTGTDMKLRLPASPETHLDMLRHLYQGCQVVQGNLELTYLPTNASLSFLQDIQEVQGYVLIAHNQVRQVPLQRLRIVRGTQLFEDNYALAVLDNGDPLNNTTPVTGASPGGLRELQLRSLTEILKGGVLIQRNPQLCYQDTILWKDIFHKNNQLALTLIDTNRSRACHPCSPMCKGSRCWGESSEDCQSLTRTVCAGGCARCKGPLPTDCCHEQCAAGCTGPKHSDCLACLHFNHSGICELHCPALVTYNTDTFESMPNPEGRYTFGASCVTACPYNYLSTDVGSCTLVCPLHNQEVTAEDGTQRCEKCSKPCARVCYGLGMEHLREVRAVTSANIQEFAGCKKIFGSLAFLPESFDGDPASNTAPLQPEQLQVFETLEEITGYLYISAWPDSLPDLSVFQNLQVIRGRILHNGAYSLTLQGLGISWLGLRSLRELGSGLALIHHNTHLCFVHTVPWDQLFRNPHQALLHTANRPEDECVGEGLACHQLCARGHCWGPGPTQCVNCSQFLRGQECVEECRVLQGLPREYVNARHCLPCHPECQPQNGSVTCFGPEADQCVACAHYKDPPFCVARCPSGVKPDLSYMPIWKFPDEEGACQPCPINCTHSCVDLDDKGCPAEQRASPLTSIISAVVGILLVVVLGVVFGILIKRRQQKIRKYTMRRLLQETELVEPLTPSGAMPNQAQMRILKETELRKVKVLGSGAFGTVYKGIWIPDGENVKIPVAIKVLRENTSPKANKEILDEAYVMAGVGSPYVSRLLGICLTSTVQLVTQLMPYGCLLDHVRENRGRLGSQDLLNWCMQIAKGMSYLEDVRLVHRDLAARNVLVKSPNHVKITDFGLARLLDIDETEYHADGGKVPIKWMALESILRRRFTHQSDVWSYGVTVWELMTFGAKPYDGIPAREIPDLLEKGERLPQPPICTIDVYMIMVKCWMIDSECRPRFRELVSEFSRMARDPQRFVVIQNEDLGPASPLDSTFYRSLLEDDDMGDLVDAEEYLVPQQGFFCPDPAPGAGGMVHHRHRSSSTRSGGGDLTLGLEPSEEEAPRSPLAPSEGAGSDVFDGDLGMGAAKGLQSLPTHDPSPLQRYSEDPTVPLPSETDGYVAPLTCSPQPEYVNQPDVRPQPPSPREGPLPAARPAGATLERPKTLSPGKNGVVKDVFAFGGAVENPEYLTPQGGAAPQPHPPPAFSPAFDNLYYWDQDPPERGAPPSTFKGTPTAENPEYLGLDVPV

What is called inhibition is the relative decrease from the control value, in per cent. Turning to `O=C(N[C@@H](C1CC1)C(F)(F)F)c1cc(-c2cnn3cc(-c4ccc(F)cc4)cnc23)cs1`, the inhibition in experiment [1] and in experiment [2] was 0% throughout. Further, the results for the fold change (FC) in experiment [3] and in experiment [4] were 0.01 and 0, respectively.

Regarding `CNC(=O)c1ccccc1Oc1nc(Nc2cc(OC)c(OC)c(OC)c2)ncc1Br`, in experiment [5], the inhibition came to 17%. For the same compound, the fold change (FC) in [6] turned out to be 0.

Take `CC(C)[C@H](NC(=O)c1cc(-c2cnn3cc(-c4ccc(OCCN5CCCCC5)cc4)cnc23)cs1)C(F)(F)F`: the inhibition in [7] and in [8] was 0% throughout. For the same compound, the fold change (FC) in experiment [9] amounted to 0.
